{"source": "paper PMC10487625", "about": "“Betaxolol as a Potent Inhibitor of NDM-1-Positive E. coli That Synergistically Enhances the Anti-Inflammatory Effect in Combination with Meropenem” (International Journal of Molecular Sciences, 2023)", "target": "T1, New Delhi metallo-β-lactamase (NDM-1) (Escherichia coli, UniProt E5KIY2)", "T1 construct": "gene blaNDM-1; recombinant NDM-1 purified from E. coli BL21(DE3)-pET-32a(+)-blaNDM-1", "T1 sequence (E5KIY2 29-270 limits assumed)": "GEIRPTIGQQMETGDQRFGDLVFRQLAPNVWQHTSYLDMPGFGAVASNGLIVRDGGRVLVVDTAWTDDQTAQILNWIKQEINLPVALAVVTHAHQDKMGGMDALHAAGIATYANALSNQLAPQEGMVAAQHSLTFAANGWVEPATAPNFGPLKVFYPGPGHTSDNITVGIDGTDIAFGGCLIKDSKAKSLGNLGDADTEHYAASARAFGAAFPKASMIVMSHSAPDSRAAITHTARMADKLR", "experiment": "nitrocefin hydrolysis assay with purified NDM-1, OD492", "type": "biochemical"}
{"smiles": "CC(C)NCC(O)COc1ccc(CCOCC2CC2)cc1", "note": "(stereo not shown) [BET, betaxolol]", "values": [{"measurement": "IC50", "value": "19.3 ± 0.9", "unit": "µM"}]}
